Laboratory results from the NIST ThermoML archive (doi:10.1016/j.fluid.2005.03.027).
Numbers after ± are expanded uncertainties.

Details: Crystal; visual observation

Row | Normal melting temperature | SMILES
1 | 41.70 ± 0.39 °C | Oc1ccccc1 [phenol]
2 | 63.77 ± 0.39 °C | Cc1cc(C)cc(O)c1 [3,5-dimethylphenol]
3 | -23.47 ± 0.39 °C | CN1CCCC1=O [N-methylpyrrolidone]
